What is called LD50 is the dose expected to kill half of the subjects tested.

One series deals with Serratia marcescens. The series is described as follows: Oral antimicrobial activity in vivo in the mouse (curative dose CD50), Serratia marcescens infection. More on the design: species or system Maus. As to conditions: peroral dose at which 50% of tested mice survive, read-out: CD50, p.o. The source says: (§1) Die orale antimikrobielle Wirksamkeit der erwähnten Produkte kann anhand von in-vivo-Versuchen an der Maus nachgewiesen werden. Im nachstehenden bedeutet die kurative Dosis (CD50, p.o., mg/kg) diejenige perorale Dosis, bei der 50% der getesteten Mäuse überleben.
(§2) Ergebnis (CD50, p.o., mg/kg)

The nature of the next series: in vivo. As to conditions: mouse, po.
A further series has as its system Klebsiella pneumoniae. The experiment in a line: Oral antimicrobial activity in vivo in the mouse (curative dose CD50), Klebsiella pneumoniae infection. Also noted: species or system Maus. As to conditions: peroral dose at which 50% of tested mice survive, read-out: CD50, p.o.
Excerpt: as §1, §2

The subject of a further series is Streptococcus pyogenes. The experiment in a line: Oral antimicrobial activity in vivo in the mouse (curative dose CD50), Streptococcus pyogenes infection. More on the design: species or system Maus. Conditions: peroral dose at which 50% of tested mice survive, read-out: CD50, p.o.
Excerpt: as §1, §2

Another series relates to Escherichia coli. The series is described as follows: Oral antimicrobial activity in vivo in the mouse (curative dose CD50), Escherichia coli infection. More on the design: species or system Maus. As to conditions: peroral dose at which 50% of tested mice survive, read-out: CD50, p.o.
Excerpt: as §1, §2

Molecules are shown by their SMILES.

`CO/N=C(\C(=O)N[C@@H]1C(=O)N2C(C(=O)OCOC(=O)C(C)(C)C)=C(CSc3nc(C(=O)OC)nn3CC(=O)OCOC(=O)C(C)(C)C)CS[C@H]12)c1csc(N)n1` [Produkt D, Methylen-(6R,7R)-7-[(Z)-2-(2-Amino-4-thiazolyl)-2-(methoxyimino)-acetamido]-3-[[[5-(methoxycarbonyl)-2-[[[(pivaloyloxy)methoxy]-carbonyl]methyl]-2H-1,2,4-triazol-3-yl]thio]-methyl]-8-oxo-5-thia-1-azabicyclo[4.2.0]oct-2-en-2-carboxylat-pivalat]: the ED50 with Serratia marcescens is over 6 mg/kg; in the series on Klebsiella pneumoniae, 12.5 mg/kg; in the series with Streptococcus pyogenes, 8.8 mg/kg. The LD50 at 24 h in the series “in vivo” is over 5000 mg/kg.
Turning to `CCOC(=O)c1nc(SCC2=C(C(=O)OCOC(=O)C(C)(C)C)N3C(=O)[C@@H](NC(=O)/C(=N\OC)c4csc(N)n4)[C@H]3SC2)n(C)n1` [Produkt B], the ED50 in the series with Serratia marcescens turned out to be 0.8 mg/kg; in the series with Streptococcus pyogenes it was 2.1 mg/kg. This compound displayed a median lethal dose (LD50) at 24 h in the series “in vivo” of over 5000 mg/kg.
Regarding `CC1=C(C(=O)O)N2C(=O)[C@@H](NC(=O)[C@H](N)c3ccccc3)[C@H]2SC1` [Cephalexin, reference compound], the values for the ED50 in the series on Escherichia coli, in the series on Serratia marcescens and in the series on Streptococcus pyogenes were 3.2 mg/kg, over 50 mg/kg and 1.8 mg/kg, respectively.
As for `CCCn1nc(C(=O)OC)nc1SCC1=C(C(=O)OCOC(=O)C(C)(C)C)N2C(=O)[C@@H](NC(=O)/C(=N\OC)c3csc(N)n3)[C@H]2SC1` [Produkt E], the ED50 with Escherichia coli is 0.04 mg/kg; in the series on Serratia marcescens, 1.8 mg/kg; in the series on Klebsiella pneumoniae it was 2.5 mg/kg; with Streptococcus pyogenes, 0.89 mg/kg. Besides, the LD50 at 24 h in “in vivo” is over 5000 mg/kg.
On to `CO/N=C(\C(=O)N[C@@H]1C(=O)N2C(C(=O)OCOC(=O)C(C)(C)C)=C(CSc3nc(C(=O)OC)nn3-c3ccccc3)CS[C@H]12)c1csc(N)n1` [Produkt F], for which the ED50 in the series with Serratia marcescens is 5.8 mg/kg; in the series with Klebsiella pneumoniae, over 12 mg/kg; with Streptococcus pyogenes, 1.5 mg/kg. The LD50 at 24 h in the series “in vivo” is over 5000 mg/kg.
In the case of `CO/N=C(\C(=O)N[C@@H]1C(=O)N2C(C(=O)OCOC(=O)C(C)(C)C)=C(CSc3nc(C(=O)OC)nn3C)CS[C@H]12)c1csc(N)n1` [Produkt A], the ED50 is 0.07 mg/kg with Escherichia coli, 1.5 mg/kg in the series with Serratia marcescens, 3.7 mg/kg in the series with Klebsiella pneumoniae and 0.72 mg/kg with Streptococcus pyogenes. For the same compound, the LD50 at 24 h in “in vivo” is over 5000 mg/kg.
For `CCn1nc(C(=O)OC)nc1SCC1=C(C(=O)OCOC(=O)C(C)(C)C)N2C(=O)[C@@H](NC(=O)/C(=N\OC)c3csc(N)n3)[C@H]2SC1` [Produkt C, Methylen-(6R,7R)-7-[(Z)-2-(2-Amino-4-thiazolyl)-2-(methoxyimino)acetamido]-3-[[[2-äthyl-5-(methoxycarbonyl)-2H-1,2,4-triazol-3-yl]thio]methyl]-8-oxo-5-thia-2-azabicyclo[4.2.0]oct-2-en-2-carboxylat-pivalat], the ED50 with Serratia marcescens amounted to 2.54 mg/kg; in the series with Streptococcus pyogenes, 0.53 mg/kg.

The values are drawn from patent EP0075095A2, “Cephalosporin derivatives, process for their preparation, pharmaceutical compositions containing them and intermediates” (F. HOFFMANN-LA ROCHE & CO. Aktiengesellschaft, priority 1981, dated 1983).
